One block for each molecule: values may come before it.
How the values were obtained:
[1] = Displacement of [3H]DTG from sigma 2 receptor in rat brain homogenate; assay type: tissue-based
[2] = target: Sigma non-opioid intracellular receptor 1 (Rattus norvegicus, UniProt Q9R0C9); assay: Displacement of [3H](+)-pentazocine from sigma 1 receptor in rat brain homogenate; assay type: tissue-based
D(1A) dopamine receptor = D(1A) dopamine receptor (Homo sapiens, UniProt P21728); assay: Displacement of [3H][…] from human D1 receptor expressed in HEK cells; assay type: cell-based, HEK293
Sequence of D(1A) dopamine receptor (P21728 whole entry): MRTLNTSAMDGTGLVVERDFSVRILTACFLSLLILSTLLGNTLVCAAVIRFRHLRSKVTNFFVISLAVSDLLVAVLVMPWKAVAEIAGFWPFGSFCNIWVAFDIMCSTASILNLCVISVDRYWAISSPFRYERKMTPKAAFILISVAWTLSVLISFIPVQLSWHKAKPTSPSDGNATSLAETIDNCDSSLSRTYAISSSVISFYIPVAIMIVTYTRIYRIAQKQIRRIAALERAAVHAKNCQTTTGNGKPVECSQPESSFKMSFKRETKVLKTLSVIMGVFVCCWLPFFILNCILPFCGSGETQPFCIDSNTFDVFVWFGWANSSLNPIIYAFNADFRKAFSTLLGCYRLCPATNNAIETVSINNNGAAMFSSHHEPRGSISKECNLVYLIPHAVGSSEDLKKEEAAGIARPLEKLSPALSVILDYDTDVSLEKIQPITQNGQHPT

D(2) dopamine receptor [3] = target: T1, D(2) dopamine receptor (Homo sapiens, UniProt P14416); assay: Displacement of [3H]N-methylspiperone from human D2 receptor expressed in HEK cells at 10 uM; assay type: cell-based; details: HEK293
T1 sequence (P14416 whole entry): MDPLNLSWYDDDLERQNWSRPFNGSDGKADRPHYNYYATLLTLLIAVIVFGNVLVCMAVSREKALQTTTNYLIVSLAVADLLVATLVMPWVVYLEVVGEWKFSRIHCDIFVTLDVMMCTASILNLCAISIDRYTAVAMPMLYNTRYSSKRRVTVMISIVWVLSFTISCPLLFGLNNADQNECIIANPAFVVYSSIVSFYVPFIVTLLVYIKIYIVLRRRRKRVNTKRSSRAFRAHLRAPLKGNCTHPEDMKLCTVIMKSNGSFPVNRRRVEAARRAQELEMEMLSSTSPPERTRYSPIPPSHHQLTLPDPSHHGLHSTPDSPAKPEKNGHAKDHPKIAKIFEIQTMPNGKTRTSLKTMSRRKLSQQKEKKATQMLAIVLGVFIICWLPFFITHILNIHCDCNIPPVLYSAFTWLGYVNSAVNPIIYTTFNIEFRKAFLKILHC

Rattus norvegicus = species: Rattus norvegicus; assay: Ratio of Ki for rat sigma 2 receptor to Ki for rat sigma 1 receptor
D(2) dopamine receptor [4] = target: T1, D(2) dopamine receptor; assay: Displacement of [3H]N-methylspiperone from human D2 receptor expressed in HEK cells; assay type: cell-based, HEK293
D(1B) dopamine receptor = D(1B) dopamine receptor (Homo sapiens, UniProt P21918); assay: Displacement of [3H][…] from human D5 receptor expressed in HEK cells; assay type: cell-based, HEK293
Sequence of D(1B) dopamine receptor (P21918 whole entry): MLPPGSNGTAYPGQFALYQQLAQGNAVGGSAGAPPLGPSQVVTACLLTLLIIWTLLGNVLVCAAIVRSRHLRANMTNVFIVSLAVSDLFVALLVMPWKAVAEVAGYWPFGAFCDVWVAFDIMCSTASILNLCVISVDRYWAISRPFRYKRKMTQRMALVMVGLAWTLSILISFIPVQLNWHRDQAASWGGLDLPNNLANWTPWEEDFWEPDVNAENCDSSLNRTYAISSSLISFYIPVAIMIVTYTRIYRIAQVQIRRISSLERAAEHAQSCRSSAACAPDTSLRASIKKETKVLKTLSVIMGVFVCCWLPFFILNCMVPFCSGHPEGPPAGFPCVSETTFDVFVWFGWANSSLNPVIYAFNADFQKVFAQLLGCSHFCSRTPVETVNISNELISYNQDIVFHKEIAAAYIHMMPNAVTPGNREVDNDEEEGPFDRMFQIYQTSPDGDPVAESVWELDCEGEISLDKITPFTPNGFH

D(4) dopamine receptor = target: T2, D(4) dopamine receptor (Homo sapiens, UniProt P21917); assay: Displacement of [3H]N-methylspiperone from human D4 receptor expressed in HEK cells; assay type: cell-based, HEK293
T2 sequence (P21917 whole entry): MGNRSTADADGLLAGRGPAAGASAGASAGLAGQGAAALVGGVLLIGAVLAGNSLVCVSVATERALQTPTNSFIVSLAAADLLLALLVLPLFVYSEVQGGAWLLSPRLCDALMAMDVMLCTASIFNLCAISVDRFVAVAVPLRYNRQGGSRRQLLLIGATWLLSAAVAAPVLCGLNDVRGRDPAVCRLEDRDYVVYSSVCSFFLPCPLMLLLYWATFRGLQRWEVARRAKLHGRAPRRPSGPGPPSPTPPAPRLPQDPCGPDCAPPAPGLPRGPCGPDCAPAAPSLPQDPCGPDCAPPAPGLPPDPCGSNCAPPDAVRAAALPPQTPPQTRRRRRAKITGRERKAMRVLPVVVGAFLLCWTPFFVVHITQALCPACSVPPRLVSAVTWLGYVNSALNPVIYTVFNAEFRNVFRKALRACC

D(3) dopamine receptor [5] = target: T3, D(3) dopamine receptor (Homo sapiens, UniProt P35462); assay: Displacement of [3H]N-methylspiperone from human D3 receptor expressed in HEK cells; assay type: cell-based, HEK293
T3 sequence (P35462 whole entry): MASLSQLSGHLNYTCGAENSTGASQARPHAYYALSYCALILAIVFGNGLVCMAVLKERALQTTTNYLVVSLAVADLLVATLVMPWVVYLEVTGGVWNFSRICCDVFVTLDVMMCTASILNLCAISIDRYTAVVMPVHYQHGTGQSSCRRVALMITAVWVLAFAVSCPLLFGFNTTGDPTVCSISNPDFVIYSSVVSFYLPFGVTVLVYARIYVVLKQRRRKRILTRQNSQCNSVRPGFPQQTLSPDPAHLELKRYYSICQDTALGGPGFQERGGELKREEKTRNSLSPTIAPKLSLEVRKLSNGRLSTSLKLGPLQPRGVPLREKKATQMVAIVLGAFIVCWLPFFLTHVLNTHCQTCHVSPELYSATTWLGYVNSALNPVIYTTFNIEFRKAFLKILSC

D(3) dopamine receptor [6] = target: T3, D(3) dopamine receptor; assay: Displacement of [3H]N-methylspiperone from human D3 receptor expressed in HEK cells at 10 uM; assay type: cell-based; details: HEK293

Sequence of Sigma non-opioid intracellular receptor 1 (Q9R0C9 whole entry): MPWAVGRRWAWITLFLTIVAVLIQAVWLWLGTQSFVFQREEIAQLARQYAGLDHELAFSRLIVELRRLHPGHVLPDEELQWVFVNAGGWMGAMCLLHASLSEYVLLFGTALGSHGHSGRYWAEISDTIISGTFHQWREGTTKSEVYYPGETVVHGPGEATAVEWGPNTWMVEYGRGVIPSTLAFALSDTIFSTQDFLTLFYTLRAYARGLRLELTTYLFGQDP

Structure (SMILES): COc1ccc(CCN2C3C4C5CC6C7C5C3C7C2(O)C64)cc1OCCc1ccccc1 (stereo not given)
Ki [1]: 93 nM | Ki [2]: 20 nM | Ki (D(1A) dopamine receptor): > 10000 nM | Activity (D(2) dopamine receptor [3]): < 50% | Ratio Ki (Rattus norvegicus): 4.7 | Ki (D(2) dopamine receptor [4]): > 10000 nM

Ki [1]: 13.3 nM
Structure (SMILES): COc1cc2c(cc1OC)CN(CCNC(=O)c1cc(C)ccc1OC)CC2

Structure (SMILES): CCCN(CCC)CCc1ccc(OC)c(OCCc2ccccc2)c1
Ki [1]: 212 nM | IC50 (D(1A) dopamine receptor): > 10000 nM | IC50 (D(2) dopamine receptor [4]): > 10000 nM

Structure (SMILES): O=C(CCCN1C2C3C4CC5C6C4C2C6C1(O)C53)c1ccc(F)cc1 (stereo not given)
Ki (D(1B) dopamine receptor): > 10000 nM | Ki [1]: 55 nM | Ki (D(4) dopamine receptor): 93 nM | Ki [2]: 27 nM | Ki (D(1A) dopamine receptor): 209 nM | Ki (D(3) dopamine receptor [5]): 1960 nM | Ki (D(2) dopamine receptor [4]): 1720 nM

Ki [1]: 7.93 nM
Structure (SMILES): O=C(CCCN1CCC(O)(c2ccc(Cl)cc2)CC1)c1ccc(F)cc1 [HALOPERIDOL]

Structure (SMILES): COc1ccc(C)cc1C(=O)NCCN1C2C3C4CC5C6C4C2C6C1(O)C53 (stereo not given)
Ki [1]: 225 nM | Activity (D(3) dopamine receptor [6]): < 50% | Ki [2]: 7.6 nM | Activity (D(2) dopamine receptor [3]): < 50% | Ratio Ki (Rattus norvegicus): 30 | Ki (D(3) dopamine receptor [5]): > 10000 nM | Ki (D(2) dopamine receptor [4]): > 10000 nM

— ChEMBL document CHEMBL1777734, “Molecular hybridization of 4-azahexacyclo[5.4.1.0(2,6).0(3,10).0(5,9).0(8,11)]dodecane-3-ol with sigma (σ) receptor ligands modulates off-target activity and subtype selectivity” (Bioorg Med Chem Lett, 2011)
